Series [1] in a line: Cytotoxicity against human KHYG-1 cells assessed as cell viability at 1 uM measured after 24 hrs by trypan blue staining based analysis relative to control. The note with it: read-out: Activity. It is filed as toxicity.
Series [2] concerns the target T1, Perforin-1 (Homo sapiens) (UniProt P14222).
T1 sequence (whole entry): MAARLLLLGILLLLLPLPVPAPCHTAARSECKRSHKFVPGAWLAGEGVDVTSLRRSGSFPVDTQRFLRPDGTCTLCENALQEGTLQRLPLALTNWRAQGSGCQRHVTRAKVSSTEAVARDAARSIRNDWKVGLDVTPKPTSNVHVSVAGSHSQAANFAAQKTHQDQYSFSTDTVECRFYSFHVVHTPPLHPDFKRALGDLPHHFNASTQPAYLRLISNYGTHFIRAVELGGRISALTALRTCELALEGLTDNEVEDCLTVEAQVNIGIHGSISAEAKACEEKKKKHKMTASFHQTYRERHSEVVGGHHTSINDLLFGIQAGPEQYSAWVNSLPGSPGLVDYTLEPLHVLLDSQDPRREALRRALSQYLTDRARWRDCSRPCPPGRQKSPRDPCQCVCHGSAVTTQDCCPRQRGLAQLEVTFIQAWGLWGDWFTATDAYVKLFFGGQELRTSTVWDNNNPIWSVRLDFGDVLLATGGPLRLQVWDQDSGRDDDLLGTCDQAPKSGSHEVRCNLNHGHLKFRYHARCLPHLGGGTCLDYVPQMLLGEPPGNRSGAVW
As to the kind of experiment: Inhibition of perforin-dependent cell killing activity of human KHYG-1 cells assessed as reduction in cytotoxicity against K562 cells preincubated for 20 mins followed by 51Cr labelled K562 cells addition and measured after 4 hrs by gamma counter analysis. It is filed as cell-based. The note with it: time 260.0 min.

The target in series [3] is T2, Perforin-1 (Mus musculus) (UniProt P10820).
T2 sequence (whole entry): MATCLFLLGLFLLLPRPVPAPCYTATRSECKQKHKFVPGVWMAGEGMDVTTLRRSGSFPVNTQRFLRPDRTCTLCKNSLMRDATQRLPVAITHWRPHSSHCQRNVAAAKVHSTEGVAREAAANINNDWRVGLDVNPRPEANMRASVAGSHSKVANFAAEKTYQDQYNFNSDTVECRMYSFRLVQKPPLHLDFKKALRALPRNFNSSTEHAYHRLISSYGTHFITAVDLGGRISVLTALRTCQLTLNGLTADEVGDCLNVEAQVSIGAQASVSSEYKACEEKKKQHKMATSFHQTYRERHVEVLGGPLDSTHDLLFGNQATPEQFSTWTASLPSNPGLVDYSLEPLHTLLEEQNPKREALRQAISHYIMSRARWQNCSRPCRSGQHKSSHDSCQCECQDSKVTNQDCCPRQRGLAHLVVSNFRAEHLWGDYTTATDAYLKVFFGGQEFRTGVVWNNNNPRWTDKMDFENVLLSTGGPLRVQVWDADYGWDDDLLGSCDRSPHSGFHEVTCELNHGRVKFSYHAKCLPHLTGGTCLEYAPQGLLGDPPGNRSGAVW
Put plainly: Binding affinity to recombinant mouse perforin expressed in baculovirus-infected Sf21 cells assessed as change in chemical shift by 19F NMR assay.

Series [4] is described as follows: Cytotoxicity against human KHYG-1 cells assessed as cell viability at 0.38 uM measured after 24 hrs by trypan blue staining based analysis relative to control. It is filed as toxicity. To be noted: read-out: Activity.
A short description of series [5]: Cytotoxicity against human KHYG-1 cells assessed as cell viability at 0.24 uM measured after 24 hrs by trypan blue staining based analysis relative to control. It is filed as toxicity. To be noted: read-out: Activity.
The subject of another series is HepG2. As to the kind of experiment: Cytotoxicity against human HepG2 cells assessed as reduction in cell viability at 0.001 to 100 uM incubated for 5 days by SRB assay. It is filed as toxicity, cell-based. The note with it: hepg2, 120 h, dose 0.001-100 µM, time 5 day. For orientation: Sulforhodamine B stains cellular protein and so reports cell mass.
The target of series [6] is T1, Perforin-1 (Homo sapiens). Put plainly: Inhibition of perforin-dependent cell killing activity of human KHYG-1 cells assessed as reduction in cytotoxicity against K562 cells at 100 uM preincubated for 20 mins followed by 51Cr labelled K562 cells addition and measured after 4 hrs by gamma counter analysis relative to control. It is filed as cell-based. To be noted: time 260.0 min.

For series [7], the target named is T3, Perforin-1 (Mus musculus, UniProt P10820).
T3 sequence (P10820 whole entry): T2 sequence (whole entry)
As to the kind of experiment: Binding affinity to lipid-coated L1 chip immobilised recombinant mouse perforin expressed in baculovirus-infected Sf21 cells by SPR analysis.

In series [8] the target is T3, Perforin-1. As to the kind of experiment: Binding affinity to CM5 chip immobilised recombinant mouse perforin expressed in baculovirus-infected Sf21 cells by SPR analysis. A general note: Surface plasmon resonance follows binding to a sensor surface in real time, without labels.

Each structure is given as a SMILES string.

Turning to `Cc1cc2c(cc1-c1cnc(N)nc1)S(=O)(=O)c1ccc(C(N)=O)cc1CC2C` (stereo not drawn), the viability at 24 h, 1 µM in series [1] came to 76%. Also, in [2], the IC90 (commonly the concentration needed for an effect of 90%) worked out at 0.04 µM.

For the molecule `Cc1ccc(S(=O)(=O)c2ccc3[nH]ncc3c2)cc1-c1cnc(N)nc1`, in [1], the viability at 24 h, 1 µM is more than 85%. Moreover, in series [2], the IC90 came to 0.281 µM.

On to `Cc1ccc(NS(=O)(=O)c2ccc3c(c2)CCN3)cc1-c1cnc(N)nc1`, for which the viability at 24 h, 1 µM in series [1] was more than 85%. In addition, in [2], the IC90 was 0.033 µM.

Consider `CCNc1ccc(S(=O)(=O)c2ccc(C)c(-c3cnc(N)nc3)c2)c(C(F)(F)F)c1`, for which, in [3], the Activity was determined as 14.5 Hz. Also, the IC90 in series [2] came out at 0.031 µM.

`Cc1cc(S(=O)(=O)c2ccc(C)c(-c3cnc(N)nc3)c2)c(C(F)(F)F)cc1N`: the Activity in [3] is 7.6 Hz. Also, in series [2], the IC90 worked out at 0.203 µM.

As for `Cc1ccc(S(=O)(=O)c2ccc3c(c2)CCN3)cc1-c1cnc2n[nH]cc2c1`, the viability at 24 h, 1 µM in series [1] came to 56%. Further, in series [4], the viability at 24 h, 0.38 µM was 97%. Further, in [2], the 90% effect concentration (IC90) is 0.04 µM.

For the molecule `Cc1ccc(NS(=O)(=O)c2ccc(N)cc2C(F)(F)F)cc1-c1cnc(N)nc1`, the Activity in series [3] came out at 5.5 Hz. Besides, the IC90 in series [2] came to 1.9 µM.

As to `Cc1cc(C(N)=O)cc(S(=O)(=O)c2ccc(C)c(-c3cnc(N)nc3)c2)c1`, the IC90 in [2] was found to be 0.029 µM. The viability at 24 h, 0.24 µM in series [5] is 64%.

`Cc1ccc(S(=O)(=O)c2ccc(N)cc2C(F)(F)F)cc1-c1cnc(N)nc1`: the Activity in series [3] was determined as 13.2 Hz. The IC90 in series [2] amounted to 0.021 µM.

Turning to `Cc1cc(C(=O)Nc2ccc(C)c(-c3cnc(N)nc3)c2)ccc1N`, the viability at 24 h, 1 µM in [1] was more than 85%. Further, the IC90 in [2] is more than 30 µM.

For the molecule `Cc1cc(S(=O)(=O)c2ccc(C)c(-c3cnc(N)nc3)c2)ccc1C(N)=O`, the viability at 24 h, 1 µM in series [1] is more than 85%. The IC90 in [2] is 0.155 µM.

Regarding `Nc1ccc(S(=O)(=O)c2ccc(N)cc2)cc1` [DAPSONE], the Activity entry with HepG2 is recorded as “Non-Toxic”. For the same molecule, the inhibition (usually the share of the control response that was lost under treatment) in [6] came to 65%. Also, the IC90 in series [2] was more than 100 µM.

Turning to `Cc1ccc(S(=O)(=O)c2ccc3c(c2)CCN3)cc1-c1cnc(N)nc1`, the Activity entry with HepG2 was “Non-Toxic”. Further, the Kd (as a rule, the concentration at which binding is half-saturated) was approximately 0.2 µM at Perforin-1 [7] and 85 µM on Perforin-1 [8]. The viability at 24 h, 1 µM in [1] was more than 85%. Moreover, the IC90 in series [2] came to 0.03 µM.

`Cc1cc(S(=O)(=O)c2ccc(C)c(-c3cnc(N)nc3)c2)ccc1N`: the Kd was approximately 0.2 µM on Perforin-1 [7] and 110 µM at Perforin-1 [8]. Also, the viability at 24 h, 1 µM in [1] was more than 85%. Further, in series [2], the IC90 is 0.169 µM.

For `Cc1cc(S(=O)(=O)Nc2ccc(C)c(-c3cnc(N)nc3)c2)ccc1N`, the viability at 24 h, 1 µM in series [1] was more than 85%. Also, the IC90 in [2] amounted to 0.07 µM.

Turning to `Cc1cc(S(=O)(=O)c2ccc3c(c2)CCN3)ccc1-c1cnc(N)nc1`, the viability at 24 h, 1 µM in [1] was more than 85%. Also, the IC90 in series [2] is more than 3 µM.

`Cc1ccc(S(=O)(=O)c2ccc3c(c2)CNC3=O)cc1-c1cnc(N)nc1`: in series [1], the viability at 24 h, 1 µM is more than 85%. Moreover, the IC90 in series [2] amounted to 0.199 µM.

As for `Cc1ccc(S(=O)(=O)c2ccc3c(c2)CCN3C)cc1-c1cnc(N)nc1`, in [1], the viability at 24 h, 1 µM was more than 85%. In addition, the IC90 in series [2] came out at 0.406 µM.

With `Cc1cc(NC(=O)c2ccc(C)c(-c3cnc(N)nc3)c2)ccc1N`, the viability at 24 h, 1 µM in series [1] was more than 85%. For the same molecule, the IC90 in [2] is more than 30 µM.

`Cc1ccc(S(=O)(=O)c2ccc3[nH]ccc3c2)cc1-c1cnc(N)nc1`: in [1], the viability at 24 h, 1 µM was more than 85%. Further, the IC90 in series [2] came to 0.496 µM.

As to `Cc1ccc(S(=O)(=O)c2ccc3c(c2)CCO3)cc1-c1cnc(N)nc1`, the viability at 24 h, 1 µM in [1] is more than 85%. The IC90 in series [2] came to 0.16 µM.

For the molecule `Cc1ccc(S(=O)(=O)c2ccc3c(c2)CCN3)cc1-c1ccc2n[nH]cc2c1`, in [1], the viability at 24 h, 1 µM is more than 85%. Also, the IC90 in series [2] was determined as 1.04 µM.

Take `Nc1ccc(S(=O)(=O)c2cccc(-c3cnc(N)nc3)c2)c(C(F)(F)F)c1`: the Activity in series [3] turned out to be 8.5 Hz. The IC90 in [2] came out at 0.131 µM.

As to `CNC(=O)Nc1ccc(-c2cc(S(=O)(=O)c3ccc4c(c3)CCN4)ccc2C)cc1`, in series [1], the viability at 24 h, 1 µM is more than 85%. For the same molecule, the IC90 in [2] stood at 4.46 µM.

With `Cc1ccc(S(=O)(=O)c2ccc(N)cc2)cc1-c1cnc(N)nc1`, the IC90 in series [2] was determined as 3.4 µM.

Turning to `Cc1cc(NS(=O)(=O)c2ccc(C)c(-c3cnc(N)nc3)c2)ccc1N`, in series [1], the viability at 24 h, 1 µM is more than 85%. For the same molecule, the IC90 in series [2] worked out at 2.29 µM.

In the case of `Cc1ccc(S(=O)(=O)c2ccc(N)cc2)cc1-c1cccnc1`, the IC90 in series [2] worked out at 43 µM.

Turning to `Cc1ccc(S(=O)(=O)c2ccc3c(c2)CCN3)cc1-c1ccc(N)nc1`, the viability at 24 h, 1 µM in series [1] is more than 85%. Besides, the IC90 in [2] stood at 0.361 µM.

Regarding `Cc1ccc(S(=O)(=O)c2ccc3c(c2)CCNC3=O)cc1-c1cnc(N)nc1`, the viability at 24 h, 1 µM in series [1] was more than 85%. For the same molecule, in [2], the IC90 amounted to 0.04 µM.

(Values after ChEMBL document CHEMBL5335787, “Fragment-based and structure-guided discovery of perforin inhibitors” (Eur J Med Chem, 2023).)
